Results: PubChem BioAssay (NCI)
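All cell lines were grown in 96-well plates and treated with compound for 48 hours. TGI denotes the concentration required for complete inhibition of growth.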

Tests used:
Test in all cases: growth of human tumour cells (NCI), 48 h
MOLT-4 leukemia = tested on: MOLT-4 leukemia
SF-539 CNS = tested on: SF-539 CNS
MDA-MB-435 = tested on: MDA-MB-435
NCI-H23 lung = tested on: NCI-H23 lung
NCI-H522 lung = tested on: NCI-H522 lung
HT29 colon = tested on: HT29 colon
BT-549 breast = tested on: BT-549 breast
U251 CNS = tested on: U251 CNS
HCT-116 colon = tested on: HCT-116 colon
KM12 colon = tested on: KM12 colon
A549 NSCLC = tested on: A549 NSCLC
HOP-62 NSCLC = tested on: HOP-62 NSCLC
SW-620 colon = tested on: SW-620 colon
EKVX NSCLC = tested on: EKVX NSCLC
A498 renal = tested on: A498 renal
ACHN renal = tested on: ACHN renal
MALME-3M melanoma = tested on: MALME-3M melanoma
SK-MEL-5 melanoma = tested on: SK-MEL-5 melanoma
UACC-62 melanoma = tested on: UACC-62 melanoma
SK-MEL-2 melanoma = tested on: SK-MEL-2 melanoma
SF-268 CNS = tested on: SF-268 CNS
CCRF-CEM leukemia = tested on: CCRF-CEM leukemia
UACC-257 melanoma = tested on: UACC-257 melanoma
786-0 renal = tested on: 786-0 renal
IGROV1 ovarian = tested on: IGROV1 ovarian
SR leukemia = tested on: SR leukemia
RXF 393 renal = tested on: RXF 393 renal
HL-60(TB) leukemia = tested on: HL-60(TB) leukemia
SK-MEL-28 melanoma = tested on: SK-MEL-28 melanoma
LOX IMVI melanoma = tested on: LOX IMVI melanoma
T-47D breast = tested on: T-47D breast
M14 melanoma = tested on: M14 melanoma
K-562 leukemia = tested on: K-562 leukemia
HS 578T breast = tested on: HS 578T breast
SK-OV-3 ovarian = tested on: SK-OV-3 ovarian
DU-145 prostate = tested on: DU-145 prostate
OVCAR-5 ovarian = tested on: OVCAR-5 ovarian
MDA-N = tested on: MDA-N
CAKI-1 renal = tested on: CAKI-1 renal
SNB-19 CNS = tested on: SNB-19 CNS
MDA-MB-231 breast = tested on: MDA-MB-231 breast
NCI/ADR-RES ovarian = tested on: NCI/ADR-RES ovarian
UO-31 renal = tested on: UO-31 renal
TK-10 renal = tested on: TK-10 renal
HOP-92 NSCLC = tested on: HOP-92 NSCLC
HCC-2998 colon = tested on: HCC-2998 colon
COLO 205 colon = tested on: COLO 205 colon
RPMI-8226 leukemia = tested on: RPMI-8226 leukemia
SN12C renal = tested on: SN12C renal
SF-295 CNS = tested on: SF-295 CNS
MCF7 breast = tested on: MCF7 breast
HCT-15 colon = tested on: HCT-15 colon
PC-3 prostate = tested on: PC-3 prostate
OVCAR-3 ovarian = tested on: OVCAR-3 ovarian
NCI-H460 lung = tested on: NCI-H460 lung
SNB-75 CNS = tested on: SNB-75 CNS
OVCAR-8 ovarian = tested on: OVCAR-8 ovarian
NCI-H226 lung = tested on: NCI-H226 lung
OVCAR-4 ovarian = tested on: OVCAR-4 ovarian

Structure (SMILES): N#CC1=C(N)C(C#N)(C#N)C(c2ccc(F)cc2)C=C1C1CC1 (stereo unspecified)
- TGI (MOLT-4 leukemia): 25.5 µM
- TGI (SF-539 CNS): 2.42 µM
- TGI (MDA-MB-435): 12.4 µM
- TGI (NCI-H23 lung): 13.8 µM
- TGI (NCI-H522 lung): 14.1 µM
- TGI (HT29 colon): 22.8 µM
- TGI (BT-549 breast): 12.5 µM
- TGI (U251 CNS): 18.2 µM
- TGI (HCT-116 colon): 15.8 µM
- TGI (KM12 colon): 16 µM
- TGI (A549 NSCLC): 41.7 µM
- TGI (HOP-62 NSCLC): 25.8 µM
- TGI (SW-620 colon): 56 µM
- TGI (EKVX NSCLC): 75.4 µM
- TGI (A498 renal): 23.5 µM
- TGI (ACHN renal): 25.6 µM
- TGI (MALME-3M melanoma): 26.8 µM
- TGI (SK-MEL-5 melanoma): 16.2 µM
- TGI (UACC-62 melanoma): 21.5 µM
- TGI (SK-MEL-2 melanoma): 19.4 µM
- TGI (SF-268 CNS): 16 µM
- TGI (CCRF-CEM leukemia): 31.7 µM
- TGI (UACC-257 melanoma): 21.1 µM
- TGI (786-0 renal): 21.9 µM
- TGI (IGROV1 ovarian): 25.5 µM
- TGI (SR leukemia): 12.9 µM
- TGI (RXF 393 renal): 18.6 µM
- TGI (HL-60(TB) leukemia): 34.8 µM
- TGI (SK-MEL-28 melanoma): 39.3 µM
- TGI (LOX IMVI melanoma): 14.5 µM
- TGI (T-47D breast): 29 µM
- TGI (M14 melanoma): 15.8 µM
- TGI (K-562 leukemia): 41.9 µM
- TGI (HS 578T breast): > 100 µM
- TGI (SK-OV-3 ovarian): 30 µM
- TGI (DU-145 prostate): 25.6 µM
- TGI (OVCAR-5 ovarian): 34.5 µM
- TGI (MDA-N): 6.67 µM
- TGI (CAKI-1 renal): 28.2 µM
- TGI (SNB-19 CNS): 27.9 µM
- TGI (MDA-MB-231 breast): 33.1 µM
- TGI (NCI/ADR-RES ovarian): 41.8 µM
- TGI (UO-31 renal): 27.2 µM
- TGI (TK-10 renal): 44 µM
- TGI (HOP-92 NSCLC): 27 µM
- TGI (HCC-2998 colon): 25.4 µM
- TGI (COLO 205 colon): 24.9 µM
- TGI (RPMI-8226 leukemia): 40.4 µM
- TGI (SN12C renal): 10.3 µM
- TGI (SF-295 CNS): 25.8 µM
- TGI (MCF7 breast): 17.1 µM
- TGI (HCT-15 colon): 22.3 µM
- TGI (PC-3 prostate): 21.8 µM
- TGI (OVCAR-3 ovarian): 18.1 µM
- TGI (NCI-H460 lung): 17.6 µM
- TGI (SNB-75 CNS): 18.1 µM
- TGI (OVCAR-8 ovarian): 21.5 µM

Structure (SMILES): CC(C)(CO)CNc1nc(N)nc(Cl)c1N
- TGI (MOLT-4 leukemia): > 100 µM
- TGI (SF-539 CNS): > 100 µM
- TGI (MDA-MB-435): > 100 µM
- TGI (NCI-H23 lung): > 100 µM
- TGI (NCI-H522 lung): > 100 µM
- TGI (HT29 colon): > 100 µM
- TGI (BT-549 breast): > 100 µM
- TGI (U251 CNS): > 100 µM
- TGI (HCT-116 colon): > 100 µM
- TGI (KM12 colon): > 100 µM
- TGI (A549 NSCLC): > 100 µM
- TGI (HOP-62 NSCLC): > 100 µM
- TGI (SW-620 colon): > 100 µM
- TGI (EKVX NSCLC): > 100 µM
- TGI (ACHN renal): > 100 µM
- TGI (MALME-3M melanoma): > 100 µM
- TGI (NCI-H226 lung): > 100 µM
- TGI (SK-MEL-5 melanoma): > 100 µM
- TGI (UACC-62 melanoma): > 100 µM
- TGI (SK-MEL-2 melanoma): > 100 µM
- TGI (SF-268 CNS): > 100 µM
- TGI (CCRF-CEM leukemia): > 100 µM
- TGI (UACC-257 melanoma): > 100 µM
- TGI (OVCAR-4 ovarian): > 100 µM
- TGI (786-0 renal): > 100 µM
- TGI (IGROV1 ovarian): > 100 µM
- TGI (RXF 393 renal): > 100 µM
- TGI (SK-MEL-28 melanoma): > 100 µM
- TGI (LOX IMVI melanoma): > 100 µM
- TGI (T-47D breast): > 100 µM
- TGI (K-562 leukemia): > 100 µM
- TGI (HS 578T breast): > 100 µM
- TGI (SK-OV-3 ovarian): > 100 µM
- TGI (DU-145 prostate): > 100 µM
- TGI (OVCAR-5 ovarian): > 100 µM
- TGI (MDA-N): > 100 µM
- TGI (CAKI-1 renal): > 100 µM
- TGI (SNB-19 CNS): > 100 µM
- TGI (MDA-MB-231 breast): > 100 µM
- TGI (NCI/ADR-RES ovarian): > 100 µM
- TGI (UO-31 renal): > 100 µM
- TGI (TK-10 renal): > 100 µM
- TGI (HOP-92 NSCLC): > 100 µM
- TGI (HCC-2998 colon): > 100 µM
- TGI (COLO 205 colon): > 100 µM
- TGI (SN12C renal): > 100 µM
- TGI (SF-295 CNS): > 100 µM
- TGI (MCF7 breast): > 100 µM
- TGI (HCT-15 colon): > 100 µM
- TGI (PC-3 prostate): > 100 µM
- TGI (OVCAR-3 ovarian): > 100 µM
- TGI (NCI-H460 lung): > 100 µM
- TGI (SNB-75 CNS): > 100 µM
- TGI (OVCAR-8 ovarian): > 100 µM
